Literature values as cited in US9110064B2, “Methods for diagnosis and treatment of endometrial cancer” (THE REGENTS OF THE UNIVERSITY OF CALIFORNIA, priority 2005, dated 2015).

Tested on: PMP22
Conditions: patients with Charcot Marie Tooth Type I

## CC(=O)[C@H]1CC[C@H]2[C@@H]3CCC4=CC(=O)CC[C@]4(C)[C@H]3CC[C@]12C [progesterone]
  PMP22 levels: restore normal PMP22 levels
  disease phenotype: ameliorated the disease phenotype
